The subject of assay [1] is vitelline capillaries of chick embryo. The experiment in a line: chick embryo vitelline capillary regression assay. Type of assay: in vivo. Conditions: Table II. The protocol: Using the chick embryo vitelline capillaries assay, compounds were tested for their ability to induce capillary regression. Each compound was applied in 0.1 ml of 15% Ficol 400 and PBS onto the embryo, and vascular regression was assessed after 60 minutes.
The 3-day chick embryo consists of an embryonic disc from which numerous vessels emerge and return, forming a "figure 8"-shaped structure--the embryo in the center with vascular loops extending outward over both poles. […] Following a lag period of around 15 minutes, the constriction of continuity between capillary and secondary vessels, generally on the "venous" side, was observed. Continued pulsatile blood flow progressed, resulting in a "swelling" of the blind tube, followed by a pinching off of the remaining connection and formation of an enclosed vascular sac resembling a "blood island." This process progressed until only the largest vessels remained intact.

The subject of another assay is HM. The assay is described as follows: HM MTT assay. Type of assay: cell-based. Conditions: Table II; read-out: HM MTT assay, Minimum Effective Concentration. (In general: Formazan colour is commonly taken as a measure of viable cells.)
For assay [2], the system named is Human ovarian carcinoma SKOV3. The assay is described as follows: growth inhibition of SKOV3. Type of assay: cell-based. The text has this:
As set forth in Table 7 below, all malignant tumors evaluated in tissue culture, endothelial cells and vascular smooth muscle cells were sensitive to inhibition. Thus, compound 1436 has application in the control of growth factor dependent proliferation of many types of tissue.

The nature of assay [3]: fasting blood glucose in mice. Type of assay: in vivo, mouse. Conditions: intravenous; vs. Group 1. The protocol: To study the effect of steroid administrator or the NHE responsible for secretion of insulin, several of the aminosterols from shark liver were administered to fasting mice. Male CD-1 mice were assigned to one of four treatment groups. Whole blood glucose was tested using glucometer (Lifescan Glucometer II and One Touch test strips). Statistical analysis was via one-way analysis of variance (ANOVA) followed by subsequent Bonferonni's t-test.

For assay [4], the system named is Xenopus tadpole (stage 59-60). The assay is described as follows: Xenopus tadpole assay. In kind it is in vivo, Xenopus laevis. Conditions: 10 μg/ml; about 1 hour.
In another assay the test system is LLC. The experiment in a line: LLC MTT. Type of assay: cell-based. Conditions: Lewis lung carcinoma; Table II; read-out: LLC MTT, Minimum Effective Concentration.

Entries after “also recorded” stand apart in the source; their conditions may differ.

As for `CC(CCC(=O)O)[C@H]1CCC2C3C(CC[C@@]21C)[C@@]1(C)CC[C@@H](NCCCNCCCCN)CC1C[C@H]3O` (single isomer, unassigned), the “Chick embryo diss. assay, Minimum Effective Concentration” value in assay [1] amounted to 0.01 µg. Also, in the assay on HM, the minimal effective concentration stood at 58.6 µg/mL.
Take `CC(C)C(CO)(CC[C@@H](C)[C@H]1CC[C@H]2[C@@H]3[C@H](O)C[C@H]4C[C@@H](NCCCNCCCCN)CC[C@]4(C)[C@H]3CC[C@]12C)OS(=O)(=O)O` (single isomer, unassigned) [Compound 1437]: in assay [2], the “anticancer activity against SKOV3” value is listed as “anticancer activity against the human ovarian carcinoma, SKOV3”. Further, in assay [3], the “fasting blood glucose effect” value is “caused hyperglycemia in mice”. In addition, in assay [4], the “tadpole response” value was “Epithelium covering the embryonic portions of the animal, such as the tail and antennae, began to slough off in sheets; also recorded: the larval skin was observed to shed off in a sheet”.
For the compound `CC(C)CCC[C@@H](C)[C@H]1CC[C@H]2[C@@H]3CC[C@H]4C[C@@H](NCCCNCCCCNCCCN)CC[C@]4(C)[C@H]3CC[C@]12C` [drawing 82], the minimal effective concentration in the assay on LLC was 3 µg/mL.

The values are drawn from patent US5874597A, “Certain aminosterol compounds and pharmaceutical compositions including these compounds” (priority 1995, dated 1999).
